# Tested on: Mus musculus
# Test: In vivo antagonist activity measured as inhibition of oxotremorine induced tremors in mice at 1 mg/kg of ip administration
# Assay type: functional
# Conditions: route intraperitoneal
row,Compound,AD50 [mg/kg]
1,CN1[C@@H]2C[C@@H](OC(=O)[C@H](CO)c3ccccc3)C[C@H]1[C@@H]1O[C@@H]12 [SCOPOLAMINE],0.1

# Biological target: Muscarinic acetylcholine receptor
# Test: Inhibition of [3H]pirenzepine binding to muscarinic receptor in rat cortical homogenates
# Conditions: not given
row,Ki [nM],Compound
1,30,CCc1nc(C2=CCCN(C)C2)oc1OC
2,16,COc1oc(C2=CCCN(C)C2)nc1Cc1ccccc1
3,10,COc1oc(C2=CCCN(C)C2)nc1C(C)C
4,0.8,CCOc1oc(C2=CCCN(C)C2)nc1C(C)CC (stereo not given)
5,33,CCOc1oc(C2=CCCN(C)C2)nc1C
6,90,COc1oc(C2=CCCN(C)C2)nc1C
7,2,CCC(C)c1nc(C2=CCCN(C)C2)oc1OC (stereo not given)

# Second part, the compound before the results:
row,Compound,Ki [nM]
1,CCCOc1oc(C2=CCCN(C)C2)nc1C(C)CC (stereo not given),0.8
2,COc1cnc(C2=CCCN(C)C2)o1,> 1000
3,CCCCOc1oc(C2=CCCN(C)C2)nc1C(C)CC (stereo not given),1.5
4,COc1oc(C2=CCCN(C)C2)nc1CC(C)C,25
5,CCCCCCOc1oc(C2=CCCN(C)C2)nc1C(C)CC (stereo not given),22
6,CCCCc1nc(C2=CCCN(C)C2)oc1OC,11

# Species on record: Rattus norvegicus
# Test: In vitro inhibition of acetylcholine induced phosphatidyl inositol hydrolysis in a rat cerebral cortex slice preparation
# Assay type: functional
# Conditions: not given
row,Compound,IC50 [nM]
1,CN1[C@@H]2C[C@@H](OC(=O)[C@H](CO)c3ccccc3)C[C@H]1[C@@H]1O[C@@H]12 [SCOPOLAMINE],8.9

# Reference: ChEMBL document CHEMBL1151039, “Muscarinic antagonist activity of 3-(5-alkoxy-oxazol-2-yl)-1,2,5,6-tetrahydropyridines” (Bioorg Med Chem Lett, 1994)
